Measurements reported in paper PMC4823954, “From fighting depression to conquering tumors: a novel tricyclic thiazepine compound as a tubulin polymerization inhibitor” (Cell Death & Disease, 2016).

Key:
Experiment in all cases: KINOMEscan
Type in all cases: binding
Conditions in all cases: read-out: % Ctrl
PIK3CA(E542K) = target: T1, PIK3CA(E542K) (Homo sapiens, UniProt P42336, E542K)
T1 construct: purchased DiscoveRx KINOMEscan

CDK3 = target: T2, CDK3 (Homo sapiens, UniProt Q00526)
T2 construct: purchased DiscoveRx KINOMEscan
Summary of the method: (§1)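 Competition binding panel of 442 non-mutant kinases: test compound at 5 and 10 μM competed with an active-site-directed ligand for 1 h with shaking. Bound kinase was eluted with 0.5 μM ligand and quantified by qPCR; %Ctrl = (compound − positive control)/(DMSO − positive control) × 100, lower meaning tighter binding.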

MYLK4 = target: T3, MYLK4 (Homo sapiens, UniProt Q86YV6)
T3 construct: purchased DiscoveRx KINOMEscan
Summary of the method: as §1

DAPK1 = target: T4, DAPK1 (Homo sapiens, UniProt P53355)
T4 construct: purchased DiscoveRx KINOMEscan
Summary of the method: as §1

DMPK = target: T5, DMPK (Homo sapiens, UniProt Q09013)
T5 construct: purchased DiscoveRx KINOMEscan
Summary of the method: as §1

[1] = target: T6, JAK1(JH1domain-catalytic) (Homo sapiens, UniProt P23458)
T6 construct: JAK1(JH1domain-catalytic); purchased DiscoveRx KINOMEscan
Summary of the method: as §1

HUNK = target: T7, HUNK (Homo sapiens, UniProt P57058)
T7 construct: purchased DiscoveRx KINOMEscan
Summary of the method: as §1

PAK1 = target: T8, PAK1 (Homo sapiens, UniProt Q13153)
T8 construct: purchased DiscoveRx KINOMEscan
Summary of the method: as §1

TESK1 = target: T9, TESK1 (Homo sapiens, UniProt Q15569)
T9 construct: purchased DiscoveRx KINOMEscan
Summary of the method: as §1

CSF1R = target: T10, CSF1R (Homo sapiens, UniProt P07333)
T10 construct: purchased DiscoveRx KINOMEscan
Summary of the method: as §1

ABL1-nonphosphorylated = target: T11, ABL1-nonphosphorylated (Homo sapiens, UniProt P00519)
T11 construct: purchased DiscoveRx KINOMEscan
Summary of the method: as §1

[2] = target: T12, RSK3(Kin.Dom.2-C-terminal) (Homo sapiens, UniProt Q15349)
T12 construct: RSK3(Kin.Dom.2-C-terminal); purchased DiscoveRx KINOMEscan
Summary of the method: as §1

IRAK4 = target: T13, IRAK4 (Homo sapiens, UniProt Q9NWZ3)
T13 construct: purchased DiscoveRx KINOMEscan
Summary of the method: as §1

DCAMKL3 = target: T14, DCAMKL3 (Homo sapiens, UniProt Q9C098)
T14 construct: purchased DiscoveRx KINOMEscan
Summary of the method: as §1

YES = target: T15, YES (Homo sapiens, UniProt P07947)
T15 construct: purchased DiscoveRx KINOMEscan
Summary of the method: as §1

MAP4K3 = target: T16, MAP4K3 (Homo sapiens, UniProt Q8IVH8)
T16 construct: purchased DiscoveRx KINOMEscan
Summary of the method: as §1

[3] = target: T17, RSK1(Kin.Dom.1-N-terminal) (Homo sapiens, UniProt Q15418)
T17 construct: RSK1(Kin.Dom.1-N-terminal); purchased DiscoveRx KINOMEscan
Summary of the method: as §1

[4] = target: T18, ABL1(F317L)-nonphosphorylated (Homo sapiens, UniProt P00519, F317L)
T18 construct: purchased DiscoveRx KINOMEscan

FLT3 = target: T19, FLT3 (Homo sapiens, UniProt P36888)
T19 construct: purchased DiscoveRx KINOMEscan
Summary of the method: as §1

PRKD2 = target: T20, PRKD2 (Homo sapiens, UniProt Q9BZL6)
T20 construct: purchased DiscoveRx KINOMEscan
Summary of the method: as §1

ERK8 = target: T21, ERK8 (Homo sapiens, UniProt Q8TD08)
T21 construct: purchased DiscoveRx KINOMEscan
Summary of the method: as §1

PRKCD = target: T22, PRKCD (Homo sapiens, UniProt Q05655)
T22 construct: purchased DiscoveRx KINOMEscan
Summary of the method: as §1

FER = target: T23, FER (Homo sapiens, UniProt P16591)
T23 construct: purchased DiscoveRx KINOMEscan
Summary of the method: as §1

MEK5 = target: T24, MEK5 (Homo sapiens, UniProt Q13163)
T24 construct: purchased DiscoveRx KINOMEscan
Summary of the method: as §1

EGFR(S752-I759del) = target: T25, EGFR(S752-I759del) (Homo sapiens, UniProt P00533, DEL752-759)
T25 construct: purchased DiscoveRx KINOMEscan

CLK1 = target: T26, CLK1 (Homo sapiens, UniProt P49759)
T26 construct: purchased DiscoveRx KINOMEscan
Summary of the method: as §1

MAP3K3 = target: T27, MAP3K3 (Homo sapiens, UniProt Q99759)
T27 construct: purchased DiscoveRx KINOMEscan
Summary of the method: as §1

RIPK4 = target: T28, RIPK4 (Homo sapiens, UniProt P57078)
T28 construct: purchased DiscoveRx KINOMEscan
Summary of the method: as §1

PIK3CA(H1047L) = target: T29, PIK3CA(H1047L) (Homo sapiens, UniProt P42336, H1047L)
T29 construct: purchased DiscoveRx KINOMEscan
T29 sequence (P42336 whole entry H1047L): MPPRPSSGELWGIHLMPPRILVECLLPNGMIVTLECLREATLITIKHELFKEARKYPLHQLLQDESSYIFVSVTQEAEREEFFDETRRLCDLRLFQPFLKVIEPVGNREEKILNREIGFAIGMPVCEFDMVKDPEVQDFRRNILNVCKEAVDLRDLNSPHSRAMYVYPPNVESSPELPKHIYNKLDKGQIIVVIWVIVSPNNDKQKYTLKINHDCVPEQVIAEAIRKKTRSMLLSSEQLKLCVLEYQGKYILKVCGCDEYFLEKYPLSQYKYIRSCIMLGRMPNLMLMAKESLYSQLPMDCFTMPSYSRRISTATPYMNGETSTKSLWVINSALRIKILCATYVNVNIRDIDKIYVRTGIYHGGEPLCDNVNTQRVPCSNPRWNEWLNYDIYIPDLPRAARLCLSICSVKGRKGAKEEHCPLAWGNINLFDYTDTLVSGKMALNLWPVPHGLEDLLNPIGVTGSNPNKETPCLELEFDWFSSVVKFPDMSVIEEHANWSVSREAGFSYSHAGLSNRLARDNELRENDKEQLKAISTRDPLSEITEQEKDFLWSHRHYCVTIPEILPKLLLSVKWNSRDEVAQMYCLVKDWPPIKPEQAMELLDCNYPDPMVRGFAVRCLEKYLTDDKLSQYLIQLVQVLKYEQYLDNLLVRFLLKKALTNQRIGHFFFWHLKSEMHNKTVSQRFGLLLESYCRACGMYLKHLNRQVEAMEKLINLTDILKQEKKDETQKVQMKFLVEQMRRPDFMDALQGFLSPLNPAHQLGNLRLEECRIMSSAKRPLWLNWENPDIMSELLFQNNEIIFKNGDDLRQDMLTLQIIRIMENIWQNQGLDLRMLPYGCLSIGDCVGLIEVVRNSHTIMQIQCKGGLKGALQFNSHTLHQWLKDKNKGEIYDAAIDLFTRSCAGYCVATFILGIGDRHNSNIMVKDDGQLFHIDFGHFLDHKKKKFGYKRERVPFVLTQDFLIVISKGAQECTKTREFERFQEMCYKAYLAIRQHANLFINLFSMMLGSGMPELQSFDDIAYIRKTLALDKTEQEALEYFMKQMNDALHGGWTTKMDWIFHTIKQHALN

T12 sequence (Q15349 389-733 limits assumed): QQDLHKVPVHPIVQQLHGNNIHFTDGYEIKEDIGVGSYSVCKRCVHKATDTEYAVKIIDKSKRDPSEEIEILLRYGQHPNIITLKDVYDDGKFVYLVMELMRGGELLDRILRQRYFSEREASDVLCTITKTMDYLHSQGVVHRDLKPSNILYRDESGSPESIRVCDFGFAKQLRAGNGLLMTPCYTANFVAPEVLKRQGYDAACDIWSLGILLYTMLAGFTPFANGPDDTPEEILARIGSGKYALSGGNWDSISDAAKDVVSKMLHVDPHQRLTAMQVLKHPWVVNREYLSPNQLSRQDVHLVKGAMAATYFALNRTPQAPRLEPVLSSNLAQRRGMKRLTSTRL
T19 sequence (P36888 27-993): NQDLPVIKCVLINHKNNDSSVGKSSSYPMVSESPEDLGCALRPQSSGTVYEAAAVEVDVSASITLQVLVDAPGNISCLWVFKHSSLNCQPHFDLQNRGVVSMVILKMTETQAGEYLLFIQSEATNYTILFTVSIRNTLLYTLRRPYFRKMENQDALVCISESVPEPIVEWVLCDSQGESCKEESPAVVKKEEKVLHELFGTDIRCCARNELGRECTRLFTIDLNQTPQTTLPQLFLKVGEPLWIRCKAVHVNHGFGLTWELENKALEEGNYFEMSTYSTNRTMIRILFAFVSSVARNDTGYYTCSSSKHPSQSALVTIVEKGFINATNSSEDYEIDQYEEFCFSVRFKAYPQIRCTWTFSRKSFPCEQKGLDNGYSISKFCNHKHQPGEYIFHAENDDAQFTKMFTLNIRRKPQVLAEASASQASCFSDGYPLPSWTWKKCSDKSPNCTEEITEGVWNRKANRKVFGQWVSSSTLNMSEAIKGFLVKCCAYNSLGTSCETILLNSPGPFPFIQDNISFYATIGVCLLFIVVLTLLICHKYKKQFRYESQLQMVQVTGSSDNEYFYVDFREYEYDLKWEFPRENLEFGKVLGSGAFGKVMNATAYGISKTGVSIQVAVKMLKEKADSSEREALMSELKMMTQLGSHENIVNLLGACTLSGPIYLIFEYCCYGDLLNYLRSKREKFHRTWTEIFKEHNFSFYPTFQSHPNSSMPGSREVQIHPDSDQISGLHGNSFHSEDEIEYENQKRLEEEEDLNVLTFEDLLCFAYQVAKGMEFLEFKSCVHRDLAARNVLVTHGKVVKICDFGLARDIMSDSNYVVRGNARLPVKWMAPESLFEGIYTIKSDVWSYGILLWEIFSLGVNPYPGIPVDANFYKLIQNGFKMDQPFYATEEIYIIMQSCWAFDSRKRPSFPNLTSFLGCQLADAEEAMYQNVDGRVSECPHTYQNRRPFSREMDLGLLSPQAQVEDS
T5 sequence (Q09013 whole entry): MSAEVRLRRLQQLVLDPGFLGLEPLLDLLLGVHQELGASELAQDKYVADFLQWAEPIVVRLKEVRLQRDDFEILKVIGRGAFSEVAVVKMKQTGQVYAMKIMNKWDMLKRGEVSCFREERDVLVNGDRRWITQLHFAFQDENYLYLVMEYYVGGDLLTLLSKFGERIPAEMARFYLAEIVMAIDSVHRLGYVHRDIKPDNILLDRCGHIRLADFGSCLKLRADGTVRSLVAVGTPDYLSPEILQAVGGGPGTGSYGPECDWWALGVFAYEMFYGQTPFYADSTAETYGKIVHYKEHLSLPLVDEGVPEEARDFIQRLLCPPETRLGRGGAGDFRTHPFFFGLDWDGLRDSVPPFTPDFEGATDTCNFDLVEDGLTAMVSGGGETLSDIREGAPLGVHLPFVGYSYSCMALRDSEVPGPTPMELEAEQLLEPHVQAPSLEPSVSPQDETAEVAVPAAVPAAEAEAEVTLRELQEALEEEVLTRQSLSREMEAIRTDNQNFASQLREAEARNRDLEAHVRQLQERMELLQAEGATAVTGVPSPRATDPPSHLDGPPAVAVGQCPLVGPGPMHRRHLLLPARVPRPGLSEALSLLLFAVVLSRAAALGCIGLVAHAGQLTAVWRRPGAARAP
T14 sequence (Q9C098 whole entry): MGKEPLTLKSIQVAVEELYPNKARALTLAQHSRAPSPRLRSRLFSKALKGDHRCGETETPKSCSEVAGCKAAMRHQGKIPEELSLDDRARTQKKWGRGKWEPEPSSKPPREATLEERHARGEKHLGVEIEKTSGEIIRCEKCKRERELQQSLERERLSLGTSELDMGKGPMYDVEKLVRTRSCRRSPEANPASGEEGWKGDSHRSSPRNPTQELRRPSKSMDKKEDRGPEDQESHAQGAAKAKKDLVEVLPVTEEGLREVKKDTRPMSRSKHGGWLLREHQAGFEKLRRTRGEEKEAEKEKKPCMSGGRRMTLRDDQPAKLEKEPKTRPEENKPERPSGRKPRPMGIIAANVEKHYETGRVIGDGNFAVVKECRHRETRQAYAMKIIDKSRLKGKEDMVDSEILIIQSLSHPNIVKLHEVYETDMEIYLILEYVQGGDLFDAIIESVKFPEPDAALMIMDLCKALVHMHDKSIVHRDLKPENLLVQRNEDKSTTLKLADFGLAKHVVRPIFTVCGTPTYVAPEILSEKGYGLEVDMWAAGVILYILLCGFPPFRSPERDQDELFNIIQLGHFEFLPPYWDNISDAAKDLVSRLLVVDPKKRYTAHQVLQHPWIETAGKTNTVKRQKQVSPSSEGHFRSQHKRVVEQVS
T27 sequence (Q99759 whole entry): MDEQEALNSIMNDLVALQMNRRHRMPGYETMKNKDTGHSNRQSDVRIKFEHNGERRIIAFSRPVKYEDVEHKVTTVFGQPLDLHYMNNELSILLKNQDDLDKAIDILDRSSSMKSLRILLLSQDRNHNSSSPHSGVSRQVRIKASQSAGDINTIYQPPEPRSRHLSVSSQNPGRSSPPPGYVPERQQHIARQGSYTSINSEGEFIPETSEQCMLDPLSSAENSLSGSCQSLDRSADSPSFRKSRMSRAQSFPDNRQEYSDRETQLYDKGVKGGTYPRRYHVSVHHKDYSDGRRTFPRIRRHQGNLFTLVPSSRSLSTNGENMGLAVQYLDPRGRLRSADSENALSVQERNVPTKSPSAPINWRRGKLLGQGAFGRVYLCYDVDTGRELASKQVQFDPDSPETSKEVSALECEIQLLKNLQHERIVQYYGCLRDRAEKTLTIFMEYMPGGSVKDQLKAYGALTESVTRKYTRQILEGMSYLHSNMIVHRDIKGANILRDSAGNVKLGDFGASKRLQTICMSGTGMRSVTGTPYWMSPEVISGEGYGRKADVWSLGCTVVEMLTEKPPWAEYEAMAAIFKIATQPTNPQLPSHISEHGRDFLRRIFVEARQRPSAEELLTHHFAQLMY
T8 sequence (Q13153 whole entry): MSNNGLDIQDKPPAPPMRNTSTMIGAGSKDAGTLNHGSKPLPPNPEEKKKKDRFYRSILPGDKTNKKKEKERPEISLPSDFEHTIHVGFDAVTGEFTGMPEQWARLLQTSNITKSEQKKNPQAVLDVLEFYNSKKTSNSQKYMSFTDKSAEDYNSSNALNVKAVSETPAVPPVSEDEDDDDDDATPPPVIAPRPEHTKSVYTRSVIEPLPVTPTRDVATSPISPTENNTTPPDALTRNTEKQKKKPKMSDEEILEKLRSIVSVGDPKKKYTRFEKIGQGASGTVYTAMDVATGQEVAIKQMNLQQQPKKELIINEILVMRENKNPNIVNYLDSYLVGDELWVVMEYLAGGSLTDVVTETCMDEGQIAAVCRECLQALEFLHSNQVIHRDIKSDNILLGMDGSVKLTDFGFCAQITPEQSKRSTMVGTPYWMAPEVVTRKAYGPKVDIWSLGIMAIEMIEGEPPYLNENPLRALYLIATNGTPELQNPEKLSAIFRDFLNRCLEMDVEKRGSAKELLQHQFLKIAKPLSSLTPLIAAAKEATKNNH
T1 sequence (P42336 whole entry E542K): as the sequence (P42336 whole entry H1047L) above, with E542K, L1047H counted along it

Structure (SMILES): Cc1ccc(C2=Nc3cccnc3S(=O)(=O)c3ccccc32)cc1 [TBPT, 6-(p-tolyl)benzo[f] pyrido[2,3-b][1,4] thiazepine 11,11-dioxide]
- remaining binding at 5 µM (PIK3CA(E542K); 5 μM): 93%
- remaining binding at 10 µM (PIK3CA(E542K); 10 μM): 97%
- remaining binding at 5 µM (CDK3; 5 μM): 100%
- remaining binding at 10 µM (CDK3; 10 μM): 100%
- remaining binding at 5 µM (MYLK4; 5 μM): 94%
- remaining binding at 10 µM (MYLK4; 10 μM): 99%
- remaining binding at 5 µM (DAPK1; 5 μM): 83%
- remaining binding at 10 µM (DAPK1; 10 μM): 100%
- remaining binding at 5 µM (DMPK; 5 μM): 88%
- remaining binding at 10 µM (DMPK; 10 μM): 100%
- remaining binding at 5 µM ([1]; 5 μM): 95%
- remaining binding at 10 µM ([1]; 10 μM): 89%
- remaining binding at 5 µM (HUNK; 5 μM): 89%
- remaining binding at 10 µM (HUNK; 10 μM): 84%
- remaining binding at 5 µM (PAK1; 5 μM): 81%
- remaining binding at 10 µM (PAK1; 10 μM): 92%
- remaining binding at 5 µM (TESK1; 5 μM): 87%
- remaining binding at 10 µM (TESK1; 10 μM): 95%
- remaining binding at 5 µM (CSF1R; 5 μM): 93%
- remaining binding at 10 µM (CSF1R; 10 μM): 100%
- remaining binding at 5 µM (ABL1-nonphosphorylated; 5 μM): 89%
- remaining binding at 10 µM (ABL1-nonphosphorylated; 10 μM): 100%
- remaining binding at 5 µM ([2]; 5 μM): 100%
- remaining binding at 10 µM ([2]; 10 μM): 100%
- remaining binding at 5 µM (IRAK4; 5 μM): 100%
- remaining binding at 10 µM (IRAK4; 10 μM): 88%
- remaining binding at 5 µM (DCAMKL3; 5 μM): 100%
- remaining binding at 10 µM (DCAMKL3; 10 μM): 79%
- remaining binding at 5 µM (YES; 5 μM): 100%
- remaining binding at 10 µM (YES; 10 μM): 100%
- remaining binding at 5 µM (MAP4K3; 5 μM): 75%
- remaining binding at 10 µM (MAP4K3; 10 μM): 91%
- remaining binding at 5 µM ([3]; 5 μM): 100%
- remaining binding at 10 µM ([3]; 10 μM): 74%
- remaining binding at 5 µM ([4]; 5 μM): 80%
- remaining binding at 10 µM ([4]; 10 μM): 100%
- remaining binding at 5 µM (FLT3; 5 μM): 100%
- remaining binding at 10 µM (FLT3; 10 μM): 68%
- remaining binding at 5 µM (PRKD2; 5 μM): 100%
- remaining binding at 10 µM (PRKD2; 10 μM): 100%
- remaining binding at 5 µM (ERK8; 5 μM): 94%
- remaining binding at 10 µM (ERK8; 10 μM): 100%
- remaining binding at 5 µM (PRKCD; 5 μM): 72%
- remaining binding at 10 µM (PRKCD; 10 μM): 100%
- remaining binding at 5 µM (FER; 5 μM): 93%
- remaining binding at 10 µM (FER; 10 μM): 100%
- remaining binding at 5 µM (MEK5; 5 μM): 100%
- remaining binding at 10 µM (MEK5; 10 μM): 95%
- remaining binding at 5 µM (EGFR(S752-I759del); 5 μM): 79%
- remaining binding at 10 µM (EGFR(S752-I759del); 10 μM): 100%
- remaining binding at 5 µM (CLK1; 5 μM): 95%
- remaining binding at 10 µM (CLK1; 10 μM): 100%
- remaining binding at 5 µM (MAP3K3; 5 μM): 79%
- remaining binding at 10 µM (MAP3K3; 10 μM): 92%
- remaining binding at 5 µM (RIPK4; 5 μM): 100%
- remaining binding at 10 µM (RIPK4; 10 μM): 100%
- remaining binding at 5 µM (PIK3CA(H1047L); 5 μM): 100%
- remaining binding at 10 µM (PIK3CA(H1047L); 10 μM): 100%
